Source: patent publication EP0082266A1, “Substituted 1,5-diaminopentanes, their preparation and pharmaceutical compositions containing them” (BASF Aktiengesellschaft, priority 1981, dated 1983)
Counter-ions that a name gives are not always drawn.

How the values were obtained:
[1] = Acute toxicity / tolerability in the rat after oral dosing (toxic symptoms: changes of baseline ECG, cyanosis, convulsions); format: in vivo; details: in vivo, po; for MTD: per os, highest tolerated dose, at which the maximal effect was read, read-out: Maximale Wirkung Dosis (maximal tolerierte Dosis); for selectivity ratio: read-out: Q = Toxische Dosis / ED 50 %
From the text: (§1) Zur weiteren Charakterisierung der Substanzen wird aus der in den Experimenten verwendeten dezimalgeometrischen Dosenfolge (Faktor [formula] ) die antiarrhythmische Wirkung der maximal tolerierten Dosis bestimmt.
(§2) Ferner wird die Dosis ermittelt, bei welcher toxische Symptome (Veränderungen des Ausgangs-EKG, Cyanose, Krämpfe) auftreten.

[2] = test system: Ratte; assay: as above; format: in vivo; details: per os; for Toxizität Dosis: dose after which the first toxic symptoms are observed
From the text: as §1, §2

[3] = test system: Aconitinarrhythmie der Ratte; assay: Antiarrhythmic activity, aconitine-induced arrhythmia in the anaesthetised rat (oral dosing, aconitine i.v. infusion 60 min later); format: in vivo, Ratten (Stamm: Sprague Dawley); details: for ED50: Rattus norvegicus, po, 1 h, read-out: Wirksame Dosis ED 50 %; for Maximale Wirkung Δ % (Verlängerung der Aconitinfusionsdauer) / R.W. = Relative Wirksamkeit, bezogen auf Chinidin = 1,00: rat, per os; for Maximale Wirkung Δ % (Verlängerung der Aconitinfusionsdauer): effect of the maximal tolerated dose; for R.W. = Relative Wirksamkeit, bezogen auf Chinidin = 1,00: relative potency from ED 50 %
Protocol: Zur Bestimmung der antiarrhythmischen Wirksamkeit werden die Substanzen Ratten (Stamm: Sprague Dawley, Gewicht 200 bis 250 g) oral appliziert. 45 min später werden die Tiere mit Thiobutabarbital-Natrium (100,0 mg/kg i.p.) narkotisiert. Als arrhythmogene Substanz dient Aconitin, das 60 min nach Substanzapplikation i.v. infundiert wird (Dosierungsgeschwindigkeit: 0,005 mg/kg x min). Bei nicht behandelten Tieren (N = 52) treten nach 2,74 + 0,07 min im EKG Arrhythmien auf, deren Eintritt durch Antiarrhythmika dosisabhängig verzögert werden kann.
Aus den linearen Beziehungen zwischen log Dosis (mg/kg) der Prüfsubstanzen und der relativen Verlängerung der Aconitin--Infusionsdauer (Δ%) wird die Dosis bestimmt, welche die Infusionsdauer um 50 % verlängert (ED 50 %).
as §1

SMILES	MTD [1] [mg/kg]	selectivity ratio [1]	Toxizität Dosis [2] [mg/kg]	ED50 [3] [mg/kg]	Maximale Wirkung Δ % (Verlängerung der Aconitinfusionsdauer) [3] [%]	R.W. = Relative Wirksamkeit, bezogen auf Chinidin = 1,00 [3]	Q = Toxische Dosis / ED 50 % ([2]; therapeutic width)
CC(C)C(CCCN(C)CCc1ccccc1)(CN(C)C)c1ccccc1 (stereo not drawn) [Beispiel 37, 1-Dimethylamino-2-isopropyl-2-phenyl-5-(phenethyl)--methylamino-pentan-dihydrochlorid]	46.4	13	100	7.99	423	5,44	
CCCNCC(CCCN(C)CCc1ccc(OC)c(OC)c1)(c1cc(OC)c(OC)c(OC)c1)C(C)C (stereo not drawn) [Beispiel 21, 1-(n-Propyl)amino-2-isopropyl-2-(3,4,5-trimethoxyphenyl)-5-[(3,4-dimethoxyphenethyl)methylamino]--pentan-dihydrochlorid]				23.4		1,86	
CCNCC(CCCN(C)CCc1ccccc1)(c1ccccc1)C(C)C (stereo not drawn) [Beispiel 9, 1-Ethylamino-2-isopropyl-2-phenyl-5-(phenethyl)-methyl-amino-pentan-dihydrochlorid]				11.8		3,69	
CCCCNCC(CCCN(C)CCc1ccc(OC)c(OC)c1)(c1ccc(Cl)cc1)C(C)C (stereo not drawn) [Beispiel 27, 1-(n-Butyl)amino-2-isopropyl-2-(4-chlorphenyl)--5-[(3,4-dimethoxyphenethyl)methylamino]-pentan--dihydrochlorid]				21.5		2,02	
C=CC1CN2CCC1CC2C(O)c1ccnc2ccc(OC)cc12 (stereo not drawn) [Chinidin, reference compound]			464	43.5	129	≡ 1,00	ll
CN(C)CC(CCCN(C)CCc1ccccc1)c1ccccc1 (stereo not drawn) [Beispiel 34, 1-Dimethylamino-2-phenyl-5-(phenethyl)methylamino--pentan]				14.7		2,96	
COc1ccc(CCN(C)CCCC(CNC(C)C)(c2cc(OC)c(OC)c(OC)c2)C(C)C)cc1OC (stereo not drawn) [Beispiel 22, 1-Isopropylamino-2-isopropyl-2-(3,4,5-trimethoxyphenyl)-5-[(3,4-dimethoxyphenethyl)methylamino]--pentan-dihydrochlorid]				24.8		1,75	
CCNCC(CCCN(C)CCc1ccc(OC)c(OC)c1)(c1ccc(OC)c(OC)c1)C(C)C (stereo not drawn) [Beispiel 15, 1-Ethylamino-2-isopropyl-2-(3,4-dimethoxyphenyl)-5--[(3,4-dimethoxyphenethyl)methylamino]-pentan-dihydrochlorid]				17.1		2,54	
CN(C)CC(C)(CCCN(C)CCc1ccccc1)c1ccccc1 (stereo not drawn) [Beispiel 35, 1-Dimethylamino-2-methyl-2-phenyl-5-(phenethyl)-methyl-amino-pentan]				8.02		5,42	
CCCCNCC(CCCN(C)CCc1ccccc1)(c1ccccc1)C(C)C (stereo not drawn) [Beispiel 12, 1-(n-Butyl)amino-2-isopropyl-2-phenyl-5-(phenethyl)-methylamino-pentan-dihydrochlorid]				22.5		1,93	
CC(C)C(CN)(CCCN(C)CCc1ccccc1)c1ccccc1 (stereo not drawn) [Beispiel 1, 1-Amino-2-isopropyl-2-phenyl-5-(phenethyl)methylamino-pentan]				29.4		1,48	
CNCC(CCCN(C)CCc1ccccc1)(c1ccccc1)C(C)C (stereo not drawn) [Beispiel 30, 1-Methylamino-2-isopropyl-2-phenyl-5-(phenethyl)methyl-amino-pentan-dihydrochlorid]	215	42	464	11	499	3,96	
COc1ccc(CCN(C)CCCC(CN(C)C)(c2ccc(OC)c(OC)c2)C(C)C)cc1OC (stereo not drawn) [Beispiel 38, 1-Dimethylamino-2-isopropyl-2-(3,4-dimethoxyphenyl)--5-[(3,4-dimethoxyphenethyl)methylamino]-pentan-dihydrochlorid]				27.8		1,57	
CCCCNCC(CCCN(C)CCc1ccc(OC)c(OC)c1)(c1cc(OC)c(OC)c(OC)c1)C(C)C (stereo not drawn) [Beispiel 23]				33.8			
CCCCC(CCCN(C)CCc1ccccc1)(CN(C)C)c1ccccc1 (stereo not drawn) [Beispiel 36, 1-Dimethylamino-2-(n-butyl)-2-phenyl-5-(phenethyl)--methylamino-pentan]				8.66		5,02	
CNCC(CCCN(C)CCc1ccc(OC)c(OC)c1)(c1cc(OC)c(OC)c(OC)c1)C(C)C (stereo not drawn) [Beispiel 33, 1-Methylamino-2-isopropyl-2-(3,4,5-trimethoxyphenyl)--5-[(3,4-dimethoxyphenethyl)methylamino]-pentan-dihydrochlorid]				21.5		2,02	
CCNCC(CCCN(C)CCc1ccc(OC)c(OC)c1)(c1cc(OC)c(OC)c(OC)c1)C(C)C (stereo not drawn) [Beispiel 20, 1-Ethylamino-2-isopropyl-2-(3,4,5-trimethoxyphenyl)-5--[(3,4-dimethoxyphenethyl)methylamino]-pentan-dihydrochlorid]	215	38	464	12.3	224	3,54	
CNCC(CCCN(C)CCc1ccccc1)c1ccccc1 (stereo not drawn) [Beispiel 28, 1-Methylamino-2-phenyl-5-(phenethyl)methylamino--pentan]				11.6		3,75	
CCC(C)NCC(CCCN(C)CCc1ccccc1)(c1ccccc1)C(C)C (stereo not drawn) [Beispiel 13, 1-(sec-Butyl)amino-2-isopropyl-2-phenyl-5-(phenethyl)-methylamino-pentan-dihydrochlorid]	100	17	215	12.9	237	3,37	
COc1ccc(CCN(C)CCCC(CNC(C)C)(c2ccc(OC)c(OC)c2)C(C)C)cc1OC (stereo not drawn) [Beispiel 17, 1-Isopropylamino-2-isopropyl-2-(3,4-dimethoxyphenyl)-5--[(3,4-dimethoxyphenethyl)methylamino]-pentan-dihydrochlorid]				26.1		1,67	
CCCNCC(CCCN(C)CCc1ccccc1)(c1ccccc1)C(C)C (stereo not drawn) [Beispiel 10, 1-(n-Propyl)amino-2-isopropyl-2-phenyl-5-(phenethyl)-methylamino-pentan-dihydrochlorid]	100	18	215	11.8	243	3,69	
CC(C)C(CN)(CCCNCCc1ccccc1)c1ccccc1.Cl.Cl (stereo not drawn) [Beispiel 6, 1-Amino-2-isopropyl-2-phenyl-5-(phenethyl)amino--pentan-dihydrochlorid]				21.6		2,01	
CC(C)NCC(CCCN(C)CCc1ccccc1)(c1ccccc1)C(C)C (stereo not drawn) [Beispiel 11, 1-Isopropylamino-2-isopropyl-2-phenyl-5-(phenethyl)-methylamino-pentan-dihydrochlorid]				6.42			
CC(C)CNCC(CCCN(C)CCc1ccccc1)(c1ccccc1)C(C)C (stereo not drawn) [Beispiel 14, 1-Isobutylamino-2-isopropyl-2-phenyl-5-(phenethyl)-methylamino-pentan-dihydrochlorid]	100	15	215	14.3	287	3,04	
CCC(C)NCC(CCCN(C)CCc1ccc(OC)c(OC)c1)(c1cc(OC)c(OC)c(OC)c1)C(C)C (stereo not drawn) [Beispiel 24]				17		2,56	
CNCC(CCCN(C)CCc1ccc(OC)c(OC)c1)(c1ccc(OC)c(OC)c1)C(C)C (stereo not drawn) [Beispiel 32, 1-Methylamino-2-isopropyl-2-(3,4-dimethoxyphenyl)-5--[(3,4-dimethoxyphenethyl)methylamino]-pentan-dihydrochlorid]				33.8			
CCCCCCCCCCCCC(CCCN(C)CCc1ccccc1)(CN(C)C)c1ccccc1 (stereo not drawn) [Beispiel 40, 1-Dimethylamino-2-(n-dodecyl)-2-phenyl-5-(phenethyl)methylamino-pentan]				6.88		6,32	
